Assay results from US11084823B2, “Substituted pyrrolo[2,1-f][1,2,4]triazines as kinase inhibitors” (Daewoong Pharmaceutical Co., Ltd., priority 2017, dated 2021).

Columns and labels:
[1] = biological target: Recombinant purified human JAK3 (Homo sapiens (Human), UniProt P52333); experiment: JAK3 kinase inhibitory activity, ADP-Glo kinase assay kit (Promega V9441); assay type: biochemical; conditions: ATP 5 uM, 4 ng JAK3 per reaction, 1 hour at 30° C., chemiluminescence
Method: (§1) JAK3 and BTK kinase inhibitory activities were measured for the compounds prepared in the above Examples through in vitro analysis on the ADP Glow (Glo) platform.
(§2) Specifically, the inhibitory activities of JAK3 and BTK kinase were measured using a JAK3 kinase assay kit (Promega, V9441) and a BTK kinase assay kit (Promega, V9071) which were purchased from Promega. Recombinant purified human JAK3 and BTK were diluted with 1× kinase reaction buffer (JAK3: 40 mM Tris-Cl, pH 7.5, 20 mM MgCl2, 0.1 mg/mL BSA and 50 uM DTT/BTK: 40 mM Tris-Cl, pH 7.5, 20 mM MgCl2, 0.1 mg/mL BSA, 2 mM MnCl2 and 50 uM DTT) and added to a 96 well plate (JAK3: final concentration of 4 ng per reaction/BTK: final concentration of 8 ng per reaction). […] After incubation (30° C.) for 1 hour, equivalent volume (25 uL per reaction) of ADP Glo was added and incubated (30° C.) for 40 minutes at room temperature. Then, a kinase detection reagent (50 uL per reaction) was added and incubated (30° C.) for 30 minutes at room temperature. The kinase activity was measured by chemiluminescence according to the instructions of ADP Glo kinase assay kit, and the inhibitory activity of the compounds according to the present invention was calculated.

[2] = biological target: Recombinant purified human BTK (Homo sapiens (Human), UniProt Q06187); experiment: BTK kinase inhibitory activity, ADP-Glo kinase assay kit (Promega V9071); assay type: biochemical; conditions: ATP 10 uM, 8 ng BTK per reaction, 1 hour at 30° C., chemiluminescence
Method: as §1, §2

Recombinant purified human BTK, sequence (Q06187 whole entry): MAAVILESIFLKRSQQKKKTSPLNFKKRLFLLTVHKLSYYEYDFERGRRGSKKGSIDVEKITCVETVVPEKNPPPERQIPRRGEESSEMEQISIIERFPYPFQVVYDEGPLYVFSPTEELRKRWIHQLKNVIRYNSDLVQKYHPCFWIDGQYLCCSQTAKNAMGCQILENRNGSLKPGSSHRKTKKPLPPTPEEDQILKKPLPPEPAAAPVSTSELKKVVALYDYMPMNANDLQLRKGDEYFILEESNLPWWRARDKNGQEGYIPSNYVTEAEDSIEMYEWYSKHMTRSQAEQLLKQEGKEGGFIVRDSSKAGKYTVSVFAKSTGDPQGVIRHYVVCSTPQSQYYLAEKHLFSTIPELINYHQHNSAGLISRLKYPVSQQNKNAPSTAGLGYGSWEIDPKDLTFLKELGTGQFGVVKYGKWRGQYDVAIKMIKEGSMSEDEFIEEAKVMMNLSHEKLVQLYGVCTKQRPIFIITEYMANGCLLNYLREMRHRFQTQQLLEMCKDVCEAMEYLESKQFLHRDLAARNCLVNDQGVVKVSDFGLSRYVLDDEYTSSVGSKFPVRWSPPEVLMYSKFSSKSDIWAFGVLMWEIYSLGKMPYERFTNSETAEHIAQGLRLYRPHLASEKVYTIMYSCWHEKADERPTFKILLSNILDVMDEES
Recombinant purified human JAK3, sequence (P52333 whole entry): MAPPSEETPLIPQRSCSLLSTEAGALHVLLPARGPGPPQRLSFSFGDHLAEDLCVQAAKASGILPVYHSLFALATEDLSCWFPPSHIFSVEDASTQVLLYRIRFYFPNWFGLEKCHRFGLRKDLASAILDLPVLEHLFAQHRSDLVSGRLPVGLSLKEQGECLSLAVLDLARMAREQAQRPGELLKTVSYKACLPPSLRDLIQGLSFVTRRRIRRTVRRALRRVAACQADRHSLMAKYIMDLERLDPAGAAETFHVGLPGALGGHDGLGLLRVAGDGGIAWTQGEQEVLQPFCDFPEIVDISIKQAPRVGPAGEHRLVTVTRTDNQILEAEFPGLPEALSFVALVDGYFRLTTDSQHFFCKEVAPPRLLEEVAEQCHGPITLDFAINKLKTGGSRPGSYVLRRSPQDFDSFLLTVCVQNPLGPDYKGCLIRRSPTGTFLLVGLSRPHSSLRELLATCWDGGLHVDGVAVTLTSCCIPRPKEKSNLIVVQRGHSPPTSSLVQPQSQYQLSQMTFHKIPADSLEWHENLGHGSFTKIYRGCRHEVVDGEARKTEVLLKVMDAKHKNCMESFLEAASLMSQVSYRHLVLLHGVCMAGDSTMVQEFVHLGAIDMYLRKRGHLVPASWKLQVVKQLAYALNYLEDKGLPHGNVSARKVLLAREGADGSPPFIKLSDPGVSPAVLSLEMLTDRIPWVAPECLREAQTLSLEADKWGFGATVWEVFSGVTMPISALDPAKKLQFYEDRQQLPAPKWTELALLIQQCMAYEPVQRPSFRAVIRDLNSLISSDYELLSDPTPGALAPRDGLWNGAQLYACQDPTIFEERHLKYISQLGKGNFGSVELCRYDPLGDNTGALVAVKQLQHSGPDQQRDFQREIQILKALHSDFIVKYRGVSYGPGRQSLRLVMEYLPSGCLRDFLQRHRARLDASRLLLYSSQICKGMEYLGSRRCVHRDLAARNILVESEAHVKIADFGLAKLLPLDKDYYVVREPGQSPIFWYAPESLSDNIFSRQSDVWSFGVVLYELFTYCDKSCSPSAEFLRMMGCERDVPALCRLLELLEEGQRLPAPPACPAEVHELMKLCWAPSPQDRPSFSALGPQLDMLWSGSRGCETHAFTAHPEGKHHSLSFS

| Structure (SMILES) | IC50 [1] [nM] | IC50 [2] [nM] |
| --- | --- | --- |
| C=CC(=O)Nc1ccc(F)c(Oc2nc(Nc3ccc(N4CCOCC4)cc3)nn3cccc23)c1 [Example 31, N-(4-fluoro-3-((2-((4-morpholinophenyl)amino)pyrrolo[2,1-f][1,2,4]triazin-4-yl)oxy)phenyl)acrylamide] | 4.5 | 27.4 |
| C=CC(=O)Nc1ccc(F)c(Oc2nc(Nc3cnn(C(F)F)c3)nn3cccc23)c1 [Example 33, N-(3-((2-((1-(difluoromethyl)-1H-pyrazol-4-yl)amino)pyrrolo[2,1-f][1,2,4]triazin-4-yl)oxy)-4-fluorophenyl)acrylamide] | 2.8 | 15.3 |
| C=CC(=O)Nc1ccc(F)c(Oc2nc(Nc3cnn(C4CCNCC4)c3)nn3cccc23)c1 [Example 37, N-(4-fluoro-3-((2-((1-(piperidin-4-yl)-1H-pyrazol-4-yl)amino)pyrrolo[2,1-f][1,2,4]triazin-4-yl)oxy)phenyl)acrylamide] | 11.5 | 63.6 |
| C=CC(=O)Nc1ccc(F)c(Oc2nc(Nc3ccc(-n4nc(C)cc4C)cc3)nn3cccc23)c1 [Example 39, N-(3-((2-((4-(3,5-dimethyl-1H-pyrazol-1-yl)phenyl)amino)pyrrolo[2,1-f][1,2,4]triazin-4-yl)oxy)-4-fluorophenyl)acrylamide] | 23.5 | 111 |
| C=CC(=O)Nc1ccc(F)c(Oc2nc(Nc3cnn(CCOC)c3)nn3cccc23)c1 [Example 40, N-(4-fluoro-3-((2-((1-(2-methoxyethyl)-1H-pyrazol-4-yl)amino)pyrrolo[2,1-f][1,2,4]triazin-4-yl)oxy)phenyl)acrylamide] | 2.8 | 23 |
| CCn1cc(Nc2nc(Oc3cc(NC(=O)/C=C/CCl)ccc3F)c3cccn3n2)cn1 [Example 44, (E)-4-chloro-N-(3-((2-((1-ethyl-1H-pyrazol-4-yl)amino)pyrrolo[2,1-f][1,2,4]triazin-4-yl)oxy)-4-fluorophenyl)but-2-enamide] | 99.5 | 114 |
| C=CC(=O)Nc1ccc(F)c(Oc2nc(Nc3cnoc3)nn3cccc23)c1 [Example 45, N-(4-fluoro-3-(2-(isoxazol-4-ylamino)pyrrolo[2,1-f][1,2,4]triazin-4-yloxy)phenyl)acrylamide] | 32 | 206 |
| C=CC(=O)Nc1ccc(Cl)c(Oc2nc(Nc3cnn(CC)c3)nn3cccc23)c1 [Example 46, N-(4-chloro-3-((2-((1-ethyl-1H-pyrazol-4-yl)amino)pyrrolo[2,1-f][1,2,4]triazin-4-yl)oxy)phenyl)acrylamide] | 56.8 | 269 |
| C=CC(=O)Nc1cc(Oc2nc(Nc3cnn(CC)c3)nn3cccc23)ccc1C [Example 47, N-(5-((2-((1-ethyl-1H-pyrazol-4-yl)amino)pyrrolo[2,1-f][1,2,4]triazin-4-yl)oxy)-2-methylphenyl)acrylamide] | 13 | 52.2 |
| C=CC(=O)Nc1cc(Oc2nc(Nc3cnn(CC(F)F)c3)nn3cccc23)ccc1C [Example 48, N-(5-((2-((1-(2,2-difluoroethyl)-1H-pyrazol-4-yl)amino)pyrrolo[2,1-f][1,2,4]triazin-4-yl)oxy)-2-methylphenyl)acrylamide] | 13.8 | 73.4 |
| CCC#CC(=O)Nc1ccc(F)c(Oc2nc(Nc3cnn(CC(F)F)c3)nn3cccc23)c1 [Example 49, N-(3-((2-((1-(2,2-difluoroethyl)-1H-pyrazol-4-yl)amino)pyrrolo[2,1-f][1,2,4]triazin-4-yl)oxy)-4-fluorophenyl)pent-2-ynamide] | > 400 | 30 |

These reach a lower IC50 [1]. Values come first.

| IC50 [1] [nM] | IC50 [2] [nM] | Structure (SMILES) |
| --- | --- | --- |
| 1.4 | 9.1 | C=CC(=O)Nc1ccc(F)c(Oc2nc(Nc3cnn(CCC)c3)nn3cccc23)c1 [Example 32, N-(4-fluoro-3-((2-((1-propyl-1H-pyrazol-4-yl)amino)pyrrolo[2,1-f][1,2,4]triazin-4-yl)oxy)phenyl)acrylamide] |
| 0.5 | 2.4 | C=CC(=O)Nc1ccc(F)c(Oc2nc(Nc3cnn(C4CCOCC4)c3)nn3cccc23)c1 [Example 34, N-(4-fluoro-3-((2-((1-(tetrahydro-2H-pyran-4-yl)-1H-pyrazol-4-yl)amino)pyrrolo[2,1-f][1,2,4]triazin-4-yl)oxy)phenyl)acrylamide] |
| 0.7 | 3.5 | C=CC(=O)Nc1ccc(F)c(Oc2nc(Nc3cnn(CCN4CCOCC4)c3)nn3cccc23)c1 [Example 35, N-(4-fluoro-3-((2-((1-(2-morpholinoethyl)-1H-pyrazol-4-yl)amino)pyrrolo[2,1-f][1,2,4]triazin-4-yl)oxy)phenyl)acrylamide] |
| 1.1 | 4.4 | C=CC(=O)Nc1ccc(F)c(Oc2nc(Nc3cnn(C(C)C)c3)nn3cccc23)c1 [Example 36, N-(4-fluoro-3-((2-((1-isopropyl-1H-pyrazol-4-yl)amino)pyrrolo[2,1-f][1,2,4]triazin-4-yl)oxy)phenyl)acrylamide] |
| 1.8 | 16.5 | C=CC(=O)Nc1ccc(F)c(Oc2nc(Nc3cnn(CC(F)(F)F)c3)nn3cccc23)c1 [Example 38, N-(4-fluoro-3-((2-((1-(2,2,2-trifluoroethyl)-1H-pyrazol-4-yl)amino)pyrrolo[2,1-f][1,2,4]triazin-4-yl)oxy)phenyl)acrylamide] |
| 0.7 | 1.2 | O=C(CCl)Nc1ccc(F)c(Oc2nc(Nc3cnn(CC(F)F)c3)nn3cccc23)c1 [Example 41, 2-chloro-N-(3-((2-((1-(2,2-difluoroethyl)-1H-pyrazol-4-yl)amino)pyrrolo[2,1-f][1,2,4]triazin-4-yl)oxy)-4-fluorophenyl)acetamide] |
| 0.5 | 1.3 | O=C(CCl)Nc1ccc(F)c(Oc2nc(Nc3cnn(C4CCOCC4)c3)nn3cccc23)c1 [Example 42, 2-chloro-N-(4-fluoro-3-((2-((1-(tetrahydro-2H-pyran-4-yl)-1H-pyrazol-4-yl)amino)pyrrolo[2,1-f][1,2,4]triazin-4-yl)oxy)phenyl)acetamide] |
| 0.7 | 1.2 | CCn1cc(Nc2nc(Oc3cc(NC(=O)CCl)ccc3F)c3cccn3n2)cn1 [Example 43, 2-chloro-N-(3-((2-((1-ethyl-1H-pyrazol-4-yl)amino)pyrrolo[2,1-f][1,2,4]triazin-4-yl)oxy)-4-fluorophenyl)acetamide] |
